Reference: patent publication US20100037353A1, “METHOD FOR IMPROVING ACTIVITY OF REACTIVE OXYGEN SPECIES SCAVENGING ENZYMES” (B Food Science Co., Ltd., priority 2007, published 2010)

Assays:
[1] = system: SOD; test: SOD activity of rat liver extract (SOD Assay Kit-WST); assay type: in vivo, SD rat; conditions: liver extract of rats fed thirty days with sugar alcohol 0-10% in feed (Example 2)
Excerpt: RNA was extracted from a root of the Arabidopsis thaliana grown by a culture medium which contains a MS culture medium composition having sucrose at a concentration of 2% and a series of test substances at a final concentration of 0-2% each. This extracted specimen was supplied to the DNA microarray. In addition, RNA was extracted from the hepatocytes of SD rat grown with feed which contains a control feed having cornstarch as the main ingredient and a sugar alcohol as a series of test substances at a final concentration of 0-10%. This extracted specimen was supplied to the DNA microarray in the same way as described above. The protein of the ROS-scavenging enzyme in the model organism cells was separated and purified using AKT Aexplorer (FPLC). SOD activity measurements were carried out according to a standard protocol using SOD Assay Kit-WST. The livers of the rats fed in Example 2 each was crushed and then extracted with normal saline solution, and then freeze-dried. SOD activity was determined according to the same way as described in Example 3. […] In particular, the SOD activity of the erythritol-added group increased by 2 times.

[2] = system: Cu/Zn-type SODs and SOD Cu Chaperone genes; test: Transcriptomics with Arabidopsis thaliana DNA chip on root total RNA; assay type: in vivo; conditions: root of Arabidopsis thaliana grown on 2% sugar-containing MS medium with sugar alcohol at final concentration 0-2%
Excerpt: (§1) The DNA microarray is a partial sequence of DNA arranged and fixed in a high-density manner on a slide glass which is divided into from several tens of thousands to hundreds of thousands. By using this, an expressed gene can be detected. Arabidopsis thaliana and a rat were used as model organisms. These organisms each was cultivated or bred with an arbitrary test substance and then an mRNA extracted from the cells of the cultivated or bred organism was hybridized with a target which is changed into cDNA with a reverse transcriptase. By carrying out this procedure, gene information expressed in the model organism was detected comprehensively, this procedure is so-called a transcriptomics. Furthermore, separation and purification of the protein of the ROS-scavenging enzyme in the model organisms' cells and determination of the enzyme activity were carried out, whereby the results obtained from the transcriptomics were directly verified. RNA was extracted from a root of the Arabidopsis thaliana grown by a culture medium which contains a MS culture medium composition having sucrose at a concentration of 2% and a series of test substances at a final concentration of 0-2% each. This extracted specimen was supplied to the DNA microarray. In addition, RNA was extracted from the hepatocytes of SD rat grown with feed which contains a control feed having cornstarch as the main ingredient and a sugar alcohol as a series of test substances at a final concentration of 0-10%. This extracted specimen was supplied to the DNA microarray in the same way as described above. The protein of the ROS-scavenging enzyme in the model organism cells was separated and purified using AKT Aexplorer (FPLC). SOD activity measurements were carried out according to a standard protocol using SOD Assay Kit-WST. Total RNA was extracted from the root of Arabidopsis thaliana grown by a culture medium containing a 2% sugar-containing MS culture medium composition and a series of sugar alcohols at a final concentration of 0-2% each. Transcriptomics was conducted using a Arabidopsis thaliana DNA chip (the number of loading genes: 30,480 genes, the number of probe/gene: 6, probe length: 60mer) of GeneFrontier Corporation.

[3] = system: SOD; test: SOD activity of Arabidopsis thaliana root extract (SOD Assay Kit-WST); assay type: in vivo; conditions: root extract of Arabidopsis thaliana grown with sugar alcohol 0-2% (Example 1)
Excerpt: RNA was extracted from a root of the Arabidopsis thaliana grown by a culture medium which contains a MS culture medium composition having sucrose at a concentration of 2% and a series of test substances at a final concentration of 0-2% each. This extracted specimen was supplied to the DNA microarray. In addition, RNA was extracted from the hepatocytes of SD rat grown with feed which contains a control feed having cornstarch as the main ingredient and a sugar alcohol as a series of test substances at a final concentration of 0-10%. This extracted specimen was supplied to the DNA microarray in the same way as described above. The protein of the ROS-scavenging enzyme in the model organism cells was separated and purified using AKT Aexplorer (FPLC). SOD activity measurements were carried out according to a standard protocol using SOD Assay Kit-WST. The roots of the Arabidopsis thaliana grown in Example 1 were crushed and water-extracted and then freeze-dried. Then each of the dried extract was dissolved in the buffer solution of 0.1M calcium phosphate to obtain a specimen. The SOD activity was determined according to a standard protocol using SOD Assay Kit-WST (Dojin Kagaku Kenkyu-Sho). […] In particular, the SOD activity of the erythritol-added group increased by 2-5 times.

[4] = system: Cu/Zn-type SODs and SOD Cu Chaperone genes; test: Transcriptomics with rat DNA chip on hepatocyte total RNA of fed rats; assay type: in vivo; conditions: hepatocytes of SD rats fed thirty days with feed containing sugar alcohol at final concentration 0-10%
Excerpt: as §1, with “Kit-WST. Rats were fed for thirty days with a control diet containing 552.5 parts by weight of cornstarch, 250 parts by weight of casein, 35 parts by weight of mineral, 10 parts by weight of vitamin mixture, 2.5 parts by weight of choline bitartrate, 50 parts by weight of corn oil and 100 parts by weight of powdered cellulose, or feedstuffs containing the same composition as described in the control diet except that a portion of the powdered cellulose was replaced with the series of sugar alcohols so that the feedstuffs contain sugar alcohols at the final concentration of 0-10% each. The livers were taken out of the killed SD system rats and the total” for “Kit-WST. Total”, “the hepatocytes,” for “the root of Arabidopsis thaliana grown by a culture medium containing a 2% sugar-containing MS culture medium composition”, “and transcriptomics” for “and a series of sugar alcohols at a final concentration of 0-2% each. Transcriptomics”, “a rat” for “a Arabidopsis thaliana”, “genes: 21,205,” for “genes: 30,480 genes,”, “of probes per gene: 9,” for “of probe/gene: 6,”

SMILES | SOD activity compared to the control group [1] | increase of SOD activity compared to the control group [1] [times] | expression of Cu/Zn-type SODs and SOD Cu Chaperone genes [2] | SOD activity compared to the control group [3] | increase of SOD activity compared to the control group [3] | expression of Cu/Zn-type SODs and SOD Cu Chaperone genes [4]
OC[C@@H](O)[C@@H](O)CO [erythritol] | promotion of the SOD activity was seen | 2 | up-regulated | promotion of the SOD activity was seen | 2-5 times | up-regulated
OC[C@@H](O)[C@@H](O)[C@H](O)[C@H](O)CO [mannitol] | promotion of the SOD activity was seen |  | up-regulated | promotion of the SOD activity was seen |  | up-regulated
OC[C@@H](O)[C@@H](O)[C@H](O)[C@@H](O)CO [sorbitol] | promotion of the SOD activity was seen |  | up-regulated | promotion of the SOD activity was seen |  | up-regulated
OC[C@@H](O)[C@H](O)[C@@H](O)CO [xylitol] | promotion of the SOD activity was seen |  | up-regulated | promotion of the SOD activity was seen |  | up-regulated
